These results are taken from ChEMBL document CHEMBL4706616, “Design, synthesis, and evaluation of substituted 2-acylamide-1,3-benzo[d]zole analogues as agents against MDR- and XDR-MTB” (Eur J Med Chem, 2021).

SMILES strings stand for the structures. ≈ marks a conversion by molar mass, not a printed value. Bounds are passed on as bounds.

The test system of test [1] is Mycobacterium tuberculosis. In words: Antitubercular activity against isoniazid/rifampicin multidrug-resistant Mycobacterium tuberculosis FJ05120 clinical isolates assessed as bacterial growth inhibition by MABA. It counts as functional.
Test [2] relates to Mycobacterium tuberculosis. Put plainly: Antitubercular activity against isoniazid/rifampicin/streptomycin/capreomycin/ofloxacin extensively drug-resistant Mycobacterium tuberculosis FJ05195 clinical isolates assessed as bacterial growth inhibition by MABA. It counts as functional. On the technique in general: Alamar Blue is a resazurin reagent that responds to reducing activity.

On to `O=C(Nc1nc2ccccc2o1)c1ccc(Cl)s1`, for which the MIC in test [1] and in test [2] was 14.3 µM (≈ 4 µg/mL) each time.

As for `Cc1nnsc1C(=O)Nc1nc2cc(-c3cccnc3)ccc2o1`, the MIC (commonly the lowest concentration found to suppress growth) in test [1] is 1.48 µM (≈ 0.499 µg/mL); in test [2], 2.96 µM (≈ 0.999 µg/mL).

Turning to `Cc1nnsc1C(=O)Nc1nc2c(-c3ccccn3)cccc2o1`, the minimal inhibitory concentration (MIC) in test [1] was 23.7 µM (≈ 8 µg/mL); in test [2], 47.4 µM (≈ 16 µg/mL).

Regarding `Cc1nnsc1C(=O)Nc1nc2c(ccc3cccnc32)o1`, the minimum inhibitory concentration (MIC) turned out to be 6.42 µM (≈ 2 µg/mL) in test [1] and 25.7 µM (≈ 8 µg/mL) in test [2].

`Cc1nnsc1C(=O)Nc1nc2ccc(Cl)cc2o1`: the minimal inhibitory concentration (MIC) in test [1] was determined as 0.42 µM (≈ 0.124 µg/mL); in test [2], 0.85 µM (≈ 0.251 µg/mL).

On to `Cc1nnsc1C(=O)Nc1nc2cc(F)ccc2o1`, for which the MIC in test [1] stood at 0.45 µM (≈ 0.125 µg/mL); in test [2] it was 1.8 µM (≈ 0.501 µg/mL).

For the molecule `Cc1nnsc1C(=O)Nc1nc2c(Oc3ncccn3)cccc2o1`, the values for the MIC in test [1] and in test [2] were 5.64 µM (≈ 2 µg/mL) and 2.82 µM (≈ 0.999 µg/mL), respectively.

As to `Cc1nnsc1C(=O)Nc1nc2c(OCc3ccccn3)cccc2o1`, the minimal inhibitory concentration (MIC) in test [1] was determined as 2.72 µM (≈ 0.999 µg/mL); in test [2], 5.44 µM (≈ 2 µg/mL).

Regarding `Cc1nnsc1C(=O)Nc1nc2cc(Br)ccc2o1`, the minimum inhibitory concentration (MIC) in test [1] and in test [2] was 1.47 µM (≈ 0.499 µg/mL) each time.

For the molecule `COC(=O)c1ccc(-c2ccc3oc(NC(=O)c4snnc4C)nc3c2)cc1`, the MIC in test [1] and in test [2] was 0.63 µM (≈ 0.248 µg/mL) in each case.

For `O=C(Nc1nc2ccccc2o1)c1ccco1`, the MIC was 70.1 µM (≈ 16 µg/mL) in test [1] and 35.1 µM (≈ 8 µg/mL) in test [2].

As to `Cc1nnsc1C(=O)Nc1nc2cc(C(C)(C)C)ccc2o1`, the MIC in test [1] and in test [2] was 0.4 µM (≈ 0.127 µg/mL) in each case.

In the case of `Cc1nnsc1C(=O)Nc1nc2cc(-c3ccccn3)ccc2o1`, the minimum inhibitory concentration (MIC) in test [1] and in test [2] was 0.37 µM (≈ 0.125 µg/mL) each time.

For `Cc1nnsc1C(=O)Nc1nc2cc(-c3cnn(C)c3)ccc2o1`, the MIC in test [1] stood at 0.73 µM (≈ 0.248 µg/mL); in test [2], 1.47 µM (≈ 0.5 µg/mL).

Regarding `Cc1ccc2oc(NC(=O)c3snnc3C)nc2c1`, the minimum inhibitory concentration (MIC) in test [1] and in test [2] was 7.29 µM (≈ 2 µg/mL) each time.

For the molecule `COC(=O)c1ccc2oc(NC(=O)c3snnc3C)nc2c1`, the MIC came out at 1.57 µM (≈ 0.5 µg/mL) in test [1] and 3.14 µM (≈ 1 µg/mL) in test [2].

In the case of `Cc1nnsc1C(=O)Nc1nc2cc(N3CCOCC3)ccc2o1`, the minimal inhibitory concentration (MIC) in test [1] and in test [2] was 23.2 µM (≈ 8 µg/mL) in each case.

Turning to `Cc1nnsc1C(=O)Nc1nc2ccccc2[nH]1`, the minimum inhibitory concentration (MIC) in test [1] and in test [2] was 30.9 µM (≈ 8 µg/mL) each time.

Turning to `Cc1nnsc1C(=O)Nc1nc2c(ccc3ccccc32)o1`, the MIC in test [1] and in test [2] was 103 µM (≈ 32 µg/mL) throughout.

Consider `Cc1nnsc1C(=O)Nc1nc2cc(Cl)ccc2o1`, for which the minimal inhibitory concentration (MIC) in test [1] and in test [2] was 1.7 µM (≈ 0.501 µg/mL) in each case.

`Cc1nnsc1C(=O)Nc1nc2c(Br)cccc2o1`: the minimum inhibitory concentration (MIC) in test [1] and in test [2] was 0.74 µM (≈ 0.251 µg/mL) in each case.

Consider `O=C(Nc1nc2ccccc2o1)c1cccs1`, for which the minimal inhibitory concentration (MIC) in test [1] and in test [2] was 32.8 µM (≈ 8 µg/mL) throughout.

Turning to `Cc1nnsc1C(=O)Nc1nc2ccccc2s1`, the MIC in test [1] and in test [2] was 57.9 µM (≈ 16 µg/mL) in each case.

Consider `Cc1nnsc1C(=O)Nc1nc2ccccc2o1`, for which the minimum inhibitory concentration (MIC) in test [1] and in test [2] was 0.48 µM (≈ 0.125 µg/mL) in each case.

`Cc1nnsc1C(=O)Nc1nc2cc(-c3ccncc3)ccc2o1`: the MIC in test [1] came out at 0.74 µM (≈ 0.25 µg/mL); in test [2], 1.48 µM (≈ 0.499 µg/mL).

On to `Cc1nnsc1C(=O)Nc1nc2ncccc2o1`, for which the MIC in test [1] came to 3.83 µM (≈ 1 µg/mL); in test [2], 7.66 µM (≈ 2 µg/mL).

`Cc1nnsc1C(=O)Nc1nc2c(ccc3ncccc32)o1`: the minimum inhibitory concentration (MIC) in test [1] and in test [2] was 25.7 µM (≈ 8 µg/mL) each time.

For the molecule `Cc1nnsc1C(=O)Nc1nc2ccc(C(C)(C)C)cc2o1`, the MIC in test [1] and in test [2] was 6.32 µM (≈ 2 µg/mL) in each case.

As to `O=C(Nc1nc2ccccc2o1)c1ccccc1`, the minimum inhibitory concentration (MIC) in test [1] and in test [2] was 537 µM (≈ 128 µg/mL) each time.

For `CC[C@@H](CO)NCCN[C@@H](CC)CO` [ETHAMBUTOL], the values for the minimum inhibitory concentration (MIC) in test [1] and in test [2] were 4.89 µM (≈ 0.999 µg/mL) and 39.2 µM (≈ 8 µg/mL), respectively.

As to `NNC(=O)c1ccncc1` [ISONIAZID], the minimum inhibitory concentration (MIC) in test [1] was found to be 7.29 µM (≈ 1 µg/mL); in test [2], 29.2 µM (≈ 4 µg/mL).

As for `CO[C@H]1/C=C/O[C@@]2(C)Oc3c(C)c(O)c4c(O)c(c(/C=N/N5CCN(C)CC5)c(O)c4c3C2=O)NC(=O)/C(C)=C\C=C\[C@H](C)[C@H](O)[C@@H](C)[C@@H](O)[C@@H](C)[C@H](OC(C)=O)[C@@H]1C` [RIFAMPIN], the minimal inhibitory concentration (MIC) in test [1] and in test [2] was over 311 µM throughout.

`CN[C@@H]1[C@H](O[C@H]2[C@H](O[C@H]3[C@H](O)[C@@H](O)[C@H](N=C(N)N)[C@@H](O)[C@@H]3N=C(N)N)O[C@@H](C)[C@]2(O)C=O)O[C@@H](CO)[C@H](O)[C@H]1O` [STREPTOMYCIN]: the MIC in test [1] was under 0.69 µM; in test [2], 87.8 µM (≈ 51.1 µg/mL).
